Results taken from patent US20260200943A1, “COMPOUNDS FOR TREATING CANCER” (Genesis Therapeutics, Inc., priority 2022, published 2026).

Experiments:
Format in all cases: biochemical
CDK9/CyclinT1 [1] = target: T1, CDK9/CyclinT1 (Homo sapiens, UniProt P50750); experiment: CDK9/CyclinT1 Mobility Shift Assay (Caliper, Table B); design: Wild-type, full length CDK9 in complex with wildtype, CyclinT1 (1-259): Biortus Cat #BP480/792/691; purchased Biortus BP480/792/691; details: read-out: CDK9/Cyclin T1 Caliper Ki: Average Ki
Protocol: 10 nL of 2000× compound in 100% DMSO is added to a 384-well polypropylene assay plate. 15 μL of 1.3×CDK9/T1 and 1.3× fluorescent substrate (Wild-type, full length CDK9 in complex with wildtype, CyclinT1 (1-259): Biortus Cat #BP480/792/691 and FL-Peptide 34: PerkinElmer Cat #760643) diluted in kinase buffer (50 mM Hepes, 0.01% Brij-35, 10 mM MgCl2, 1 mM EGTA, 0.05% BSA, and 2 mM DTT) is added to the plates on top of the compound, mixed, and pre-incubated for 30 minutes at room temperature. The fluorescently labeled peptide substrate is phosphorylated by CDK9/T1 upon ATP hydrolysis. Following the incubation, 5 μL of 4×ATP diluted in kinase buffer is added to the plate to initiate the reaction. Following the 30-minute incubation, the reaction is stopped by adding 75 μL of stopping buffer containing 0.5 M EDTA.
(§1) The assay plate is then read on a Lab Chip EZ Reader which separates the fluorescently labeled substrate and product peptides through a mobility difference. The phosphorylation of the substrate imparts a negative charge, which allows differences in separation as both are pulled through the microfluidic chip. The ratio of substrate and product values are used to generate percent conversion. These raw percent conversion values are normalized to calculate percent inhibition, which are fit to a four-parameter logistic curve and IC50 values are calculated. IC50 values are converted to Ki using substrate, Kmapp values, and the Cheng-Prusoff equation.
Target sequence in this assay (P50750 whole entry): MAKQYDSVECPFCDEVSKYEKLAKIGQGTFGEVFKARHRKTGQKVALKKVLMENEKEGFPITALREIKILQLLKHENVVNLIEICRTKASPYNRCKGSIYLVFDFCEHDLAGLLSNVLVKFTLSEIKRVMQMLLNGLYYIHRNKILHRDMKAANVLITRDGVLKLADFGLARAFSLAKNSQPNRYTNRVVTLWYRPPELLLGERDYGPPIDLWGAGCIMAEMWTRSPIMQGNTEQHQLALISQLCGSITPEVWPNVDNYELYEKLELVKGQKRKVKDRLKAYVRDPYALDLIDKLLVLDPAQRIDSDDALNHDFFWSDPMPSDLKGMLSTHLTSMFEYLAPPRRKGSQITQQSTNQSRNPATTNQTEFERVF
Target sequence in this assay (O60563 1-259 partner limits assumed): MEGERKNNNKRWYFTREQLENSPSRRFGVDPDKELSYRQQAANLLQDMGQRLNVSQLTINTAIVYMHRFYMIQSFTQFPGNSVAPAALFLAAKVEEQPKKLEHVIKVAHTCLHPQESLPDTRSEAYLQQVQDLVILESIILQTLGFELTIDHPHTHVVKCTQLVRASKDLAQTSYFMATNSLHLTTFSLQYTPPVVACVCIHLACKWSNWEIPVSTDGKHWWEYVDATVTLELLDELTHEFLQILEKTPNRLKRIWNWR

CDK9/CyclinT1 [2] = target: T1, CDK9/CyclinT1; experiment: CDK9/CyclinT1 ChEF Assay (Table A); design: Wild-type, full length CDK9 in complex with wildtype, full length CyclinT1: Invitrogen Cat #PV4131; purchased Invitrogen PV4131; details: 10xKm, read-out: CDK9/CCNT1 ChEF 10xKm Ki: Average Ki
Protocol: 500 nL of 50× compound in 100% DMSO is added to a 384-well low volume, white assay plate. 19.5 μL of 1.3×CDK9/CyclinT1 (Wild-type, full length CDK9 in complex with wildtype, full length CyclinT1: Invitrogen Cat #PV4131) diluted in assay buffer (50 mM Hepes, 0.01% Brij-35, 10 mM MgCl2, 0.5 mM EGTA, 1% Glycerol, and 1.2 mM DTT) is added to the plates on top of the compound and pre-incubated for 30 minutes at room temperature. Following the incubation, 5 μL of 5×Sox-chromophore (CSox) labeled peptide substrate (AQT0449, AssayQuant) & ATP diluted in assay buffer is added to the plate to initiate the reaction. The assay is incubated at room temperature for 120 min after initiation. The CSox peptide substrate is phosphorylated by CDK9/T1 upon ATP hydrolysis.
(§2) The fluorescent intensity measurement of the assay plate for all assays described above is read on a microplate reader once the assay is initiated and again at the completion of the assay. Phosphorylation of the CSox-based peptide substrate sensor results in an immediate increase in fluorescence. These raw fluorescence intensity values are normalized to calculate percent inhibition, which are fit to a four-parameter logistic curve and IC50 values are calculated. IC50 values are converted to Ki using substrate, KM^app values, and the Cheng-Prusoff equation.
Target sequence in this assay (P50750 whole entry): as the sequence (P50750 whole entry) above
Target sequence in this assay (O60563 whole entry partner): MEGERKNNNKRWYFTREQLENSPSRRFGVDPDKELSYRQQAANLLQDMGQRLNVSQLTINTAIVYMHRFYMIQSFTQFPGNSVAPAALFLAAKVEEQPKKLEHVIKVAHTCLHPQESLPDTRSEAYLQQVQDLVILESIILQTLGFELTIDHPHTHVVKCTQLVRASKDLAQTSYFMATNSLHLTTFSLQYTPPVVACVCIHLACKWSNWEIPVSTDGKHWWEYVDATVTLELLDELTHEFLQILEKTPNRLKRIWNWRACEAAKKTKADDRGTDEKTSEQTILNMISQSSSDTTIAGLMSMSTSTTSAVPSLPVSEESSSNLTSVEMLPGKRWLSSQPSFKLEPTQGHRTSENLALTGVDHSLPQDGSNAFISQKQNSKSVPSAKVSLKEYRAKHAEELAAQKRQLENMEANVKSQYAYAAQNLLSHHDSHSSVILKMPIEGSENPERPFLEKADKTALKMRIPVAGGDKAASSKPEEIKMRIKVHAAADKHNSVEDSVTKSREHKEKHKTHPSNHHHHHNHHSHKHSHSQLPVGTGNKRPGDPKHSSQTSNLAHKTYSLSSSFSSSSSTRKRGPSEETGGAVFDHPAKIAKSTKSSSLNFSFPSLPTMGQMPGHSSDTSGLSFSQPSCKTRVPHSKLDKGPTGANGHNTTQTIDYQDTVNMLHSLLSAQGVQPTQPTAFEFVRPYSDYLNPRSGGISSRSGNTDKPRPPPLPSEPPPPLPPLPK

CDK1/CyclinB1 = target: T2, CDK1/CyclinB1 (Homo sapiens, UniProt P06493); experiment: CDK1/CyclinB1 ChEF Assay (Table A); details: read-out: CDK1/CCNB1 ChEF Ki: Average Ki;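 note: Ki reported in nM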
T2 construct: Wild-type, full length CDK1 in complex with wildtype, full length CyclinB1: Carna Cat #04-102; purchased Carna 04-102
T2 sequence (P06493 whole entry): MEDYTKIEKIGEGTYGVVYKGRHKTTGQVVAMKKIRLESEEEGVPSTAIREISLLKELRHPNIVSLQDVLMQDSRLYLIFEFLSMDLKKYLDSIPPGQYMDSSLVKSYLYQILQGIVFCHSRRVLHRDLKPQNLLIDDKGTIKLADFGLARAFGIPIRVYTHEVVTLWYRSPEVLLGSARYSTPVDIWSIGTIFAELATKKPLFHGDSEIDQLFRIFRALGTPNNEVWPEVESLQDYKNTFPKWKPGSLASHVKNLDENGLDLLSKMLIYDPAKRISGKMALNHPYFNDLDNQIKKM
T2 sequence (P14635 whole entry partner): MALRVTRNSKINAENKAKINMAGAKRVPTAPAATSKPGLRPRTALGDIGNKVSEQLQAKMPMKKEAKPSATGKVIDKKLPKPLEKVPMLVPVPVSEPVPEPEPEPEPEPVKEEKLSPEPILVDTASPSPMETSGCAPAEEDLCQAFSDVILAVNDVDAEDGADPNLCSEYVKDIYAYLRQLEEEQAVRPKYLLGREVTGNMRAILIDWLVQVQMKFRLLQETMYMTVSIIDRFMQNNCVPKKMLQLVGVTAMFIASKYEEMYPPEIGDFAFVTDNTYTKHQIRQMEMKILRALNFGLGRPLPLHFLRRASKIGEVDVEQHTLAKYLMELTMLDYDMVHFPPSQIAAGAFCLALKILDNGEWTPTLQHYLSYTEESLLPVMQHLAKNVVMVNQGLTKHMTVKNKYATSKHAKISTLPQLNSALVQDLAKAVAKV
Protocol: 500 nL of 50× compound in 100% DMSO is added to a 384-well low volume, white assay plate. 19.5 μL of 1.3×CDK1/CyclinB1 (Wild-type, full length CDK1 in complex with wildtype, full length CyclinB1: Carna Cat #04-102) diluted in assay buffer (50 mM Hepes, 0.01% Brij-35, 10 mM MgCl2, 0.5 mM EGTA, 1% Glycerol, and 1.2 mM DTT) is added to the plates on top of the compound and pre-incubated for 30 minutes at room temperature. Following the incubation, 5 μL of 5×Sox-chromophore (CSox) labeled peptide substrate (AQT0297, AssayQuant) & ATP diluted in assay buffer is added to the plate to initiate the reaction. The assay is incubated at room temperature for 30 min after initiation. The CSox peptide substrate is phosphorylated by CDK1/B1 upon ATP hydrolysis.
as §2

CDK2/CyclinA2 = target: T3, CDK2/CyclinA2 (Homo sapiens, UniProt P24941); experiment: CDK2/Cyclin A2 Mobility Shift Assay (Caliper, Table B); details: for Ki: Caliper mobility shift, 10xKm, read-out: CDK2/CCNA2 Caliper 10xKm Ki: Average Ki
T3 construct: Wild-type, full length CDK2 in complex with wildtype, full length CyclinA2: Carna Cat #04-103; purchased Carna 04-103
Protocol: 10 nL of 2000× compound in 100% DMSO is added to a 384-well polypropylene assay plate. 15 μL of 1.3×CDK2/A2 and 1.3× fluorescent substrate (Wild-type, full length CDK2 in complex with wildtype, full length CyclinA2: Carna Cat #04-103 and FL-Peptide 18: PerkinElmer Cat #760362) diluted in kinase buffer (50 mM Hepes, 0.01% Brij-35, 10 mM MgCl2, 1 mM EGTA, 0.05% BSA, and 2 mM DTT) is added to the plates on top of the compound, mixed, and pre-incubated for 30 minutes at room temperature. The fluorescently labeled peptide substrate is phosphorylated by CDK2/A2 upon ATP hydrolysis. Following the incubation, 5 μL of 4×ATP diluted in kinase buffer is added to the plate to initiate the reaction. Following the 30-minute incubation, the reaction is stopped by adding 75 μL of stopping buffer containing 0.5 M EDTA.
as §1, with “Ki through” for “Ki”, “substrate and Km^app” for “substrate, Kmapp”

## NS(=O)(=O)c1ccc2cc1OCCCCCNC(=O)O[C@@H]1CC[C@@H](C1)c1cnc(nc1)N2 (stereo in doubt) [Compound 105, rel-(2S,5R)-7-oxo-6,14-dioxa-8,20,22,25-tetraazatetracyclo[19.2.2.1^{2,5}.1^{15,19}]heptacosa-1(23),15,17,19(26),21,24-hexaene-16-sulfonamide]
CDK9/CyclinT1 [1]
  Ki: ≥ 100 nM

## O=C1NCCOCCNS(=O)(=O)c2ccc(c(F)c2)Nc2cc([nH]n2)[C@H]2CC[C@H](C2)O1 [Compound 89, (1^1S,1^3R,Z)-4^2-Fluoro-2^1H-9,14-dioxa-5-thia-3,6,12-triaza-2(5,3)-pyrazola-4(1,4)-benzena-1(1,3)-cyclopentanacyclotetradecaphan-13-one 5,5-dioxide]
CDK9/CyclinT1 [1]
  Ki: 1 to 25 nM
CDK9/CyclinT1 [2]
  Ki: ≥ 100 nM
CDK1/CyclinB1
  Ki: 1 to 25 nM
CDK2/CyclinA2
  Ki: 1 to 25 nM
  CDK2/CCNA2 Caliper 10xKm Ki: CDK2/A2 Selectivity over CDK1/B1: A (A>10)
  CDK2/CCNA2 Caliper 10xKm Ki: CDK2/A2 Selectivity over CDK9: A (A>10)

## O=C1NCCCCCNS(=O)(=O)c2ccc(c(F)c2)Nc2cc([nH]n2)[C@H]2CC[C@H](C2)O1 [Compound 90, (1^1S,1^3R,Z)-4^2-fluoro-2^1H-14-oxa-5-thia-3,6,12-triaza-2(5,3)-pyrazola-4(1,4)-benzena-1(1,3)-cyclopentanacyclotetradecaphan-13-one 5,5-dioxide]
CDK9/CyclinT1 [1]
  Ki: 25 to 100 nM
CDK9/CyclinT1 [2]
  Ki: ≥ 100 nM
CDK1/CyclinB1
  Ki: 1 to 25 nM
CDK2/CyclinA2
  Ki: 1 to 25 nM
  CDK2/CCNA2 Caliper 10xKm Ki: CDK2/A2 Selectivity over CDK1/B1: A (A>10)
  CDK2/CCNA2 Caliper 10xKm Ki: CDK2/A2 Selectivity over CDK9: A (A>10)

## O=C1NCCCCCCNS(=O)(=O)c2ccc(c(F)c2)Nc2cc([nH]n2)[C@H]2CC[C@H](C2)O1 [Compound 91, (1^1S,1^3R,Z)-4^2-fluoro-2^1H-15-oxa-5-thia-3,6,13-triaza-2(5,3)-pyrazola-4(1,4)-benzena-1(1,3)-cyclopentanacyclopentadecaphan-14-one 5,5-dioxide]
CDK9/CyclinT1 [1]
  Ki: 25 to 100 nM
CDK9/CyclinT1 [2]
  Ki: ≥ 100 nM
CDK1/CyclinB1
  Ki: 1 to 25 nM
CDK2/CyclinA2
  Ki: < 1 nM
  CDK2/CCNA2 Caliper 10xKm Ki: CDK2/A2 Selectivity over CDK1/B1: A (A>10)
  CDK2/CCNA2 Caliper 10xKm Ki: CDK2/A2 Selectivity over CDK6/D3: A (A>10)
  CDK2/CCNA2 Caliper 10xKm Ki: CDK2/A2 Selectivity over CDK9: A (A>10)

## O=C1NCCCCCCCNS(=O)(=O)c2ccc(c(F)c2)Nc2cc([nH]n2)[C@H]2CC[C@H](C2)O1 [Compound 92]
CDK9/CyclinT1 [1]
  Ki: 25 to 100 nM
CDK9/CyclinT1 [2]
  Ki: ≥ 100 nM
CDK1/CyclinB1
  Ki: < 1 nM
CDK2/CyclinA2
  Ki: < 1 nM
  CDK2/CCNA2 Caliper 10xKm Ki: CDK2/A2 Selectivity over CDK1/B1: A (A>10)
  CDK2/CCNA2 Caliper 10xKm Ki: CDK2/A2 Selectivity over CDK6/D3: A (A>10)
  CDK2/CCNA2 Caliper 10xKm Ki: CDK2/A2 Selectivity over CDK9: A (A>10)

## O=C1NCCCn2cc(cn2)S(=O)(=O)N2CCC(CC2)Nc2cc([nH]n2)[C@H]2CC[C@H](C2)O1 [Compound 95, (1^1S, 1^3R,2^4Z,6^4E)-2^1H,6^1H-12-oxa-5-thia-3,10-diaza-4(4,1)-piperidina-2(5,3),6(4,1)-dipyrazola-1(1,3)-cyclopentanacyclododecaphan-11-one 5,5-dioxide]
CDK9/CyclinT1 [1]
  Ki: ≥ 100 nM
CDK9/CyclinT1 [2]
  Ki: ≥ 100 nM
CDK1/CyclinB1
  Ki: ≥ 100 nM
CDK2/CyclinA2
  Ki: 25 to 100 nM
  CDK2/CCNA2 Caliper 10xKm Ki: CDK2/A2 Selectivity over CDK1/B1: B (5≤B<10)
  CDK2/CCNA2 Caliper 10xKm Ki: CDK2/A2 Selectivity over CDK9: B (5≤B<10)

## O=C1NCCCCCn2cc(cn2)S(=O)(=O)N2CCC(CC2)Nc2cc([nH]n2)[C@H]2CC[C@H](C2)O1 [Compound 96, (1^1S,1^3R,2^4Z,6^4E)-2^1H,6^1H-14-oxa-5-thia-3,12-diaza-4(4,1)-piperidina-2(5,3),6(4,1)-dipyrazola-1(1,3)-cyclopentanacyclotetradecaphan-13-one 5,5-dioxide]
CDK9/CyclinT1 [1]
  Ki: ≥ 100 nM
CDK9/CyclinT1 [2]
  Ki: 25 to 100 nM
CDK1/CyclinB1
  Ki: 25 to 100 nM
CDK2/CyclinA2
  Ki: 1 to 25 nM
  CDK2/CCNA2 Caliper 10xKm Ki: CDK2/A2 Selectivity over CDK1/B1: A (A>10)
  CDK2/CCNA2 Caliper 10xKm Ki: CDK2/A2 Selectivity over CDK9: A (A>10)

## O=C1NCCCCCCn2cc(cn2)S(=O)(=O)N2CCC(CC2)Nc2cc([nH]n2)[C@H]2CC[C@H](C2)O1 [Compound 97, (1^1S,1^3R,2^4Z,6^4E)-2^1H,6^1H-15-oxa-5-thia-3,13-diaza-4(4,1)-piperidina-2(5,3),6(4,1)-dipyrazola-1(1,3)-cyclopentanacyclopentadecaphan-14-one 5,5-dioxide]
CDK9/CyclinT1 [1]
  Ki: ≥ 100 nM
CDK9/CyclinT1 [2]
  Ki: ≥ 100 nM
CDK1/CyclinB1
  Ki: 1 to 25 nM
CDK2/CyclinA2
  Ki: 1 to 25 nM
  CDK2/CCNA2 Caliper 10xKm Ki: CDK2/A2 Selectivity over CDK1/B1: A (A>10)
  CDK2/CCNA2 Caliper 10xKm Ki: CDK2/A2 Selectivity over CDK9: A (A>10)

## O=C1NCCCNS(=O)(=O)c2ccc(c(F)c2)Nc2cc([nH]n2)[C@H]2CC[C@H](C2)O1 [Compound 98, (1^1S, 1^3R,Z)-4^2-fluoro-2^1H-12-oxa-5-thia-3,6, 10-triaza-2(5,3)-pyrazola-4(1,4)-benzena-1(1,3)-cyclopentanacyclododecaphan-11-one 5,5-dioxide]
CDK9/CyclinT1 [1]
  Ki: ≥ 100 nM
CDK9/CyclinT1 [2]
  Ki: 25 to 100 nM
CDK1/CyclinB1
  Ki: ≥ 100 nM
CDK2/CyclinA2
  Ki: 25 to 100 nM
  CDK2/CCNA2 Caliper 10xKm Ki: CDK2/A2 Selectivity over CDK1/B1: A (A>10)
  CDK2/CCNA2 Caliper 10xKm Ki: CDK2/A2 Selectivity over CDK9: A (A>10)

## O=C1NCCCCNS(=O)(=O)c2ccc(c(F)c2)Nc2cc([nH]n2)[C@H]2CC[C@H](C2)O1 [Compound 99, (1^1S, 1^3R,Z)-4^2-fluoro-2^1H-13-oxa-5-thia-3,6,11-triaza-2(5,3)-pyrazola-4(1,4)-benzena-1(1,3)-cyclopentanacyclotridecaphan-12-one 5,5-dioxide]
CDK9/CyclinT1 [1]
  Ki: ≥ 100 nM
CDK9/CyclinT1 [2]
  Ki: ≥ 100 nM
CDK1/CyclinB1
  Ki: 1 to 25 nM
CDK2/CyclinA2
  Ki: < 1 nM
  CDK2/CCNA2 Caliper 10xKm Ki: CDK2/A2 Selectivity over CDK1/B1: A (A>10)
  CDK2/CCNA2 Caliper 10xKm Ki: CDK2/A2 Selectivity over CDK6/D3: A (A>10)
  CDK2/CCNA2 Caliper 10xKm Ki: CDK2/A2 Selectivity over CDK9: A (A>10)
